Data taken from US10301308B2, “Azetidine derivatives for tau imaging” (Eli Lilly and Company, priority 2015, dated 2019).

Key:
[1] = system: native tau aggregates vs native β-amyloid aggregates in human brain sections; assay: Autoradiography selectivity towards tau versus β amyloid in AD human brain tissue; format: binding
Excerpt: Based on the anti-tau and anti-amyloid immunostaining results of brain sections, three groups of human brain sections are selected for autoradiography experiments to determine the native tau-binding selectivity of 3-(3-[18F]-fluoroazetidin-1-yl)-8-methylbenzo[4,5]imidazo[1,2-a]pyridine. Group A are tau-rich AD brain slices (labeled as Tau+Aβ+), Group B are tau-poor AD brain slices (marked as Tau-Aβ+), and Group C are Tau-Aβ− normal brain slices. […] The human AD brain sections in Group B are #33562, #32656, #33998, #35682, and #33563. The normal human brain sections in group C are #29092 and #32566. Tissue slices from the same donors are used to calculate selectivity for all three compounds for testing according to Assay Example 5. Autoradiography is performed for each of these three groups of brains on adjacent 10 μm sections with the amyloid tracer [18F]W372 to quantify the β-amyloid burden. [18F]W372 is a selective amyloid binding tracer discovered by Siemens and evaluated under IND 105173. Sections are covered with 0.5 ml of 3-(3-[18F]-fluoroazetidin-1-yl)-8-methylbenzo[4,5]imidazo[1,2-a]pyridine (in 2.5:2.5:95 DMSO:EtOH:1×PBS, about 20 μCi/slide) and incubated for 1.5 hrs. Then successive washing cycles (1 min PBS, 2 min 30% EtOH/PBS, 2 min 70% EtOH/PBS, 1 min PBS) are employed to remove any unbound tracer. The sections are air dried, placed on a phosphorimaging plate (Fuji IP plate), and exposed overnight. The IP plate is read using a GE Healthcare Life Sciences Typhoon FLA 7000 Phosphorimager. The signal intensity of the grey matter is measured using Fujifilm Multi Gauge software. After subtracting the background signal (signal in the cortex region of Group C), the signal of individual sections of Group A and B are normalized with corresponding signal from autoradiography of the respective adjacent sections with [18F]W372. The calculations are based on Group B brain sections #32656 and #33998, which have undetectable tau pathology by immunohistochemistry. The normalized signal for 3-(3-[18F]-fluoroazetidin-1-yl)-8-methylbenzo[4,5]imidazo[1,2-a]pyridine in Group B brain sections is the relative signal level of 3-(3-[18F]-fluoroazetidin-1-yl)-8-methylbenzo[4,5]imidazo[1,2-a]pyridine to [F-18]W372 resulting from binding to native β-amyloid aggregates. The binding level of 3-(3-[18F]-fluoroazetidin-1-yl)-8-methylbenzo[4,5]imidazo[1,2-a]pyridine to native tau-aggregates in Group A sections is estimated by subtracting the amount of the total signal attributable to binding to 3-amyloid (calculated by multiplying the total signal from [18F]W372 binding to β-amyloid in the adjacent section by the relative signal of 3-(3-[18F]-fluoroazetidin-1-yl)-8-methylbenzo[4,5]imidazo[1,2-a]pyridine to [18F]W372 determined from the Group B sections). The resulting difference is then divided by the signal attributable to binding to β-amyloid to estimate the selectivity of 3-(3-[18F]-fluoroazetidin-1-yl)-8-methylbenzo[4,5]imidazo[1,2-a]pyridine. […] The selectivity of 3-(3-[18F]-fluoroazetidin-1-yl)-8-methylbenzo[4,5]imidazo[1,2-a]pyridine binding to native tau aggregates vs. binding native β-amyloid aggregates is reflected by the ratio of Group A (Tau+Aβ+) signal to the signal of the brain sections #32656 and #33998.

tau protein = assay: Clinical PET imaging of tau protein in the brain (SUVr); format: in vivo, human
Protocol: Clinical evaluation of 3-(3-[18F]-Fluoroazetidin-1-yl)-8-methylbenzo[4,5]imidazo[1,2-a]pyridine (Compound 8) as a PET radioligand for imaging tau protein deposition in patients with AD or other neurodegenerative disorders is conducted in healthy volunteers. AD patients, or Chronic Traumatic Encephalopathy (CTE) subjects, by completion of one or more PET scans with Compound 8. Dynamic PET imaging is acquired on a Siemens ECAT EXACT HR+ over 150 minutes following Compound 8 or [18F]AV-1451 injection (0-60 and 90-150 minute imaging segments). Compound 8 or [18F]AV-1451 scans are acquired similarly in two imaging sessions. A brain MRI is also obtained. PET and MRI images are aligned and normalized, and ATLAS-based volumes of interest (VOI) are applied to the dynamic PET series. Compound 8 or [18F]AV-1451 are evaluated in terms of kinetic profile as well as target region to cerebellum standardized uptake value ratio (SUVr between 100-120 min) between healthy volunteers and AD or CTE subjects.

Cc1ccc2nc3cc(N4CC([18F])C4)ccn3c2c1 [Compound 8, 3-(3-[18F]-fluoroazetidin-1-yl)-8-methylbenzo[4,5]imidazo[1,2-a]pyridine]
selectivity ratio for Tau:Aβ ([1]; 5 Tau+Aβ+ and 2 Tau-Aβ+ brain specimens): approximately 26.6±4.5 | autoradiography signal on grey matter (cortex region) ([1]; Group A (Tau+Aβ+) sections): Strong signal | autoradiography signal on cortex regions ([1]; Group B (Tau-Aβ+) sections): weak or no signal | autoradiography signal ([1]; Group C (Tau-Aβ−) normal brain sections): No autoradiography signal | grey matter to white matter (GM/WM) signal ratio ([1]; autoradiography, Tau+Aβ+ brain specimens): approximately 17.3±1.7 | selectivity of binding to native tau aggregates vs native β-amyloid aggregates ([1]; grey matter region of human AD brains): approximately 27 fold | autoradiography signal on normal brain sections, grey vs white matter ([1]; normal brain sections): weak and even | SUVr values compared to [18F]AV-1451 (tau protein; AD subjects): slightly higher SUVr values compared to [18F]AV-1451 | mean SUVr averaged over all regions (tau protein; AD subjects): ~1.6 | uptake in cortical brain regions, AD subjects compared with healthy controls (tau protein; AD subjects vs healthy controls): Higher uptake | SUVr in other cortical regions (tau protein; CTE subject): ~1.0 | SUVr in focal sub-regions with high uptake (tau protein; CTE subject, sub-regions of inferior lateral parietal, superior parietal and posterior temporal cortex): ~1.5 | mean SUVr averaged over all regions (tau protein; healthy volunteer subjects): ~1.1 | SUVr in cortical regions (tau protein; healthy volunteer subjects, target region to cerebellum): 1.0-1.1
